Assay results as given in US20070265164A1, “Active Substances for Increasing Pathogenic Defense in Plants and Methods for the Detection Thereof” (Bayer Cropscience GmbH, priority 2004, published 2007).

Experiments:
[1] = test system: jasmonic acid biosynthesis; test: GEP, induction pattern of the jasmonic acid biosynthesis genes; assay type: in vivo, barley; conditions: compared with the other safeners and resistance inductors
Protocol: Barley plants (cv. Baronesse) were grown in compost-filled pots (diameter: 10 cm) for 10 days in a controlled-environment cabinet under defined light, humidity and temperature conditions (white light, 70% atmospheric humidity, 24° C.). At the time of spray application, the seedlings were approximately 15 cm in size. The test substances selected in this example were molecules which differ markedly in their structure and which have a well documented pronounced safener effect, and other molecules which are known from the literature to have an effect on plant stress and pathogen tolerance (Table 1). The substances were prepared as stock solutions in DMSO (dimethyl sulfoxide) at c=10 mg/ml). This was used for preparing dilutions in water supplemented with 0.2% Agrotin (comprises polyvinyl alcohol, silicones, polysaccharides and pH regulators, manufacturer: Bayer CropScience AG, Monheim, Germany), as wetter, to give the application rates shown in the table. The amount of liquid for the spray application was 800 μl per pot, corresponding to 800 l/ha. For each 800 μl of spray mixture, 16 μl of EC premix: diacetone alcohol=1:6 were additionally added as formulation auxiliaries. The substances listed in Table 1 were applied to the leaves by means of a pneumatic spray pistol. […] The fluorescent data obtained were analyzed with the software Microarray Suite 5 from Affymetrix. […]

Rhopalosiphum padi = test: Repellent effect of safener-treated plants on phytopathogenic insects; assay type: in vivo; conditions: barley sprayed with 150 g a.i./ha, infested 6 h or 24 h after application, average
Protocol: Barley plants (cv. Baronesse) were grown as described in Example 1 and, after 10 days, treated by spray application with 150 g a.i./ha of isoxadifen-ethyl (S 3) or blank formulation. The experiments were carried out in replications of in each case 10 pots.
6 hours or 24 hours after the substance had been applied, all pots were infested uniformly with a population of the phytopathogenic aphid Rhopalosiphum padi. The experiments were evaluated after 7 days and 14 days by counting the animals on the leaves.

aphids = test: Plant-free Sachez test, direct toxicity; assay type: in vivo
Description: A direct toxicity of isoxadifen-ethyl (S3) against aphids was not detected in the plant-free Sachez test.

Jasmonate (JA) = Jasmonate (JA) concentration in leaves of treated plants, GC-MS/MS; assay type: in vivo, barley
Protocol: Barley plants (cv. Baronesse) were grown under the conditions described in Example 1 and treated by spray application with safener isoxadifen-ethyl (S 3). The application rates were chosen as follows:
(1) 30 [g a.i./ha]; (2) 150 [g a.i./ha]; (3) blank formulation (no active ingredient)
The plant leaves were harvested at different points in time after the treatment (h=hours), viz. after 1 h, 2 h, 4 h, 6 h, 12 h, 24 h and 48 h. All samples were designed in each case as replications of 3 pots.
The octadecanoates and jasmonates were processed from the leaves following a procedure described in the literature (Müller A, Düchting P and Weiler E W (2002)), A multiplex GC-MS/MS technique for the sensitive and quantitative single-run analysis of acidic phytohormones and related compounds, and its application to Arabidopsis thaliana. Planta, 216, 44-56).
300 mg of plant material were extracted for each measuring point.
50 pmol [^13C]2-JA and 100 pmol [17,17,17,18,18-^2H]-cis-OPDA were applied as internal standards. The extracts were purified via aminopropyl anion-exchange chromatography in miniature solid-phase exchanger columns which had been prepared in-house.
The results are shown in Tables 3a to 3d, the values shown being in each case means of the 3 applications.

CCOC(=O)C1=NOC(c2ccccc2)(c2ccccc2)C1 [S3, Isoxadifen-ethyl]
Effect on jasmonic acid biosynthesis (induction pattern) [1]: most pronounced
Aphid populations less than the controls (Rhopalosiphum padi; after 7 days): 50%
Aphid populations less than the controls (Rhopalosiphum padi; after 14 days): 70%
Direct toxicity against aphids (aphids): not detected
Jasmonate (JA) concentration (Jasmonate (JA); 30 g a.i/ha, 1 hour): 600 pmol/g leaf tissue
Jasmonate (JA) concentration (Jasmonate (JA); 30 g a.i/ha, 2 hours): 320 pmol/g leaf tissue
Jasmonate (JA) concentration (Jasmonate (JA); 30 g a.i/ha, 4 hours): 790 pmol/g leaf tissue
Jasmonate (JA) concentration (Jasmonate (JA); 30 g a.i/ha, 6 hours): 620 pmol/g leaf tissue
Jasmonate (JA) concentration (Jasmonate (JA); 150 g a.i./ha, 1 hour): 290 pmol/g leaf tissue
Jasmonate (JA) concentration (Jasmonate (JA); 150 g a.i./ha, 2 hours): 280 pmol/g leaf tissue
Jasmonate (JA) concentration (Jasmonate (JA); 150 g a.i./ha, 4 hours): 270 pmol/g leaf tissue
Jasmonate (JA) concentration (Jasmonate (JA); 150 g a.i./ha, 6 hours): 275 pmol/g leaf tissue
Jasmonate (JA) concentration (Jasmonate (JA); 150 g a.i./ha, 12 hours): 155 pmol/g leaf tissue
Jasmonate (JA) concentration (Jasmonate (JA); 150 g a.i./ha, 24 hours): 265 pmol/g leaf tissue
Jasmonate (JA) concentration (Jasmonate (JA); 150 g a.i./ha, 48 hours): 320 pmol/g leaf tissue
Increase in JA concentration relative to blank formulation samples (Jasmonate (JA); maximum over rates and times): ≤ 5 times
Jasmonate (JA) concentrations, range over the experiment (Jasmonate (JA); summary of Tables 3c, 3d, all rates and times): 70-800 pmol/g leaf tissue
